Experimental data published in US10196363B2, “Dihydropyrimidin-2-one compounds and medical use thereof” (JAPAN TOBACCO INC., priority 2014, dated 2019).
Read-outs that look alike come from different tables or passages of the source.

How the values were obtained:
human RORγ = target: T1, human RORγ (Homo sapiens, UniProt P51449); experiment: In vitro assay of inhibitory effect against RORγ transcriptional activity (GAL4-hRORγ LBD luciferase reporter gene assay in CHO cells); format: cell-based; conditions: for hRORγ luciferase activity, %-of-control: vehicle-control 0.2% DMSO alone = 100%
T1 construct: human RORγ, from Ser253 to Lys518; expressed in transfected cells; host or cells: CHO cells (Chinese hamster ovary), transient co-transfection with pG5-Luc
T1 sequence (P51449 253-518): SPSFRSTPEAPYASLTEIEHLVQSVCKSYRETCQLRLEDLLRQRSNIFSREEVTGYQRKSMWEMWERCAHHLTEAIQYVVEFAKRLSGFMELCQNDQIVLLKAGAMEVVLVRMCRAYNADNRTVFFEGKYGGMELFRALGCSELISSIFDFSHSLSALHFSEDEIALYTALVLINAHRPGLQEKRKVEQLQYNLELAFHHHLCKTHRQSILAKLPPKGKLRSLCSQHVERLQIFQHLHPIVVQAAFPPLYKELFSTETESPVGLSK
In short: (§1)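 In this reporter assay, compounds acted for 2 days on transfected CHO cells carrying GAL4-RORγ LBD (human or mouse) with pG5-Luc. Percent values refer to the 0.2% DMSO control.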

mouse RORγ = target: T2, mouse RORγ (Mus musculus, UniProt P51450); experiment: In vitro assay of inhibitory effect against RORγ transcriptional activity (GAL4-mRORγ LBD luciferase reporter gene assay in CHO cells); format: cell-based; conditions: for mRORγ luciferase activity, %-of-control: vehicle-control 0.2% DMSO alone = 100%
T2 construct: mouse RORγ, from Ile251 to Lys516; expressed in transfected cells; host or cells: CHO cells (Chinese hamster ovary), transient co-transfection with pG5-Luc
T2 sequence (P51450 251-516): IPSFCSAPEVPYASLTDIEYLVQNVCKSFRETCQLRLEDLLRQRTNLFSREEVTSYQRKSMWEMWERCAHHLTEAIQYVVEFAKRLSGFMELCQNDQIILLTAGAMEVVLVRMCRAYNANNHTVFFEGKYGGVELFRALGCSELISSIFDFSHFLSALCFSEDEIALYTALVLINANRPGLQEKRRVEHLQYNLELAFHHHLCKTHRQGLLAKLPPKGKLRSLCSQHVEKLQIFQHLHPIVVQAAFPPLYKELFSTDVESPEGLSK
In short: as §1

[1] = GAL4-hRORγ LBD / pG5-Luc in CHO cells, 2 days incubation
[2] = value in parentheses beside the > EC50 bound
[3] = GAL4-mRORγ LBD / pG5-Luc in CHO cells, 2 days incubation
[4] = GAL4-hRORγ LBD luciferase reporter, CHO cells, read-out: LUC EC50 hRORγ
[5] = GAL4-mRORγ LBD luciferase reporter, CHO cells, read-out: LUC EC50 mRORγ
[6] = value in parentheses beside the EC50 bound

SMILES | EC50 (human RORγ; [1]) [nM] | EC50 (mouse RORγ; [3]) [nM] | EC50 (human RORγ; [4]) [nM] | EC50 (mouse RORγ; [5]) [nM] | further results
CC(C)C1=CN(CCC(=O)O)C(=O)N[C@@]1(C)c1ccc(CCC2CC(C)(C)C2)c(Cl)c1 [Example 142] | > 512 | 49 | – | – | hRORγ luciferase activity, %-of-control (human RORγ; [2]): (102%)
COCCC1=CN(c2ccc(C(=O)O)cc2)C(=O)N[C@@]1(C)c1ccc(CCC(C)(C)C)c(Cl)c1 [Example 210] | – | – | 6 | 7 | –
CC(C)C1=CN(CCC(C)(C)C(=O)O)C(=O)N[C@@]1(C)c1ccc(CCC(C)(C)C)c(Cl)c1 [Example 55] | 22 | 26 | – | – | –
CC(C)(C)CCc1ccc([C@]2(C)NC(=O)N(C3CC(C)(C)C3)C=C2[C@H]2C[C@@H](C(=O)O)C2)cc1Cl [Example 251] | – | – | 13 | 28 | –
COCCC1=CN(C23CCC(C(=O)O)(C2)C3)C(=O)N[C@@]1(C)c1ccc(CCC(C)(C)C)c(C(F)(F)F)c1 [Example 324] | – | – | 47 | 36 | –
CC(C)C1=CN(CCC(=O)O)C(=O)N[C@]1(C)c1ccc(CCCC(C)(C)C)c(Cl)c1 [Example 123] | > 3200 | > 3200 | – | – | hRORγ luciferase activity, %-of-control (human RORγ; [2]): (109%); mRORγ luciferase activity, %-of-control (mouse RORγ; [2]): (100%)
CC(C)C1=CN(CCC2(C(=O)O)CC2)C(=O)N[C@@]1(C)c1ccc(CCC(C)(C)C)c(Cl)c1 [Example 72] | 13 | 17 | – | – | –
CC(C)CS(=O)(=O)c1ccc([C@]2(C)NC(=O)N(CCC(=O)O)C=C2C(C)C)cc1Cl [Example 219] | – | – | > 20000 | > 20000 | hRORγ luciferase activity, %-of-control (human RORγ; [6]): (88%); mRORγ luciferase activity, %-of-control (mouse RORγ; [6]): (86%)
Cc1cc(N2C=C(C(C)C)[C@](C)(c3ccc(CCC(C)(C)C)c(Cl)c3)NC2=O)ccc1C(=O)O [Example 266] | – | – | 12 | 17 | –
CCCCc1ccc(C2(C)NC(=O)N(CCCC(=O)O)C=C2C(C)C)cc1Cl (racemic) [Example 28] | 187 | 82 | – | – | –
CC(C)C1=CN(C2CCC(C(=O)O)C2)C(=O)N[C@@]1(C)c1ccc(CCC(C)(C)C)c(Cl)c1 (single isomer, unassigned) [Example 278] | – | – | 13 | 13 | –
CC(C)C1=CN(CCCC(C)(C)C(=O)O)C(=O)N[C@]1(C)c1ccc(CCC(C)(C)C)c(Cl)c1 [Example 74] | 986 | 1100 | – | – | –
CC(C)C1=CN(CCC(=O)O)C(=O)N[C@@]1(C)c1ccc(CCC2CCCCC2)c(Cl)c1 [Example 139] | > 512 | 27 | – | – | hRORγ luciferase activity, %-of-control (human RORγ; [2]): (110%)
CC(C)C1=CN(C(C)CCC(=O)O)C(=O)NC1(C)c1ccc(CCC(C)(C)C)c(Cl)c1 (stereo not drawn) [Example 73] | 803 | 657 | – | – | –
CC(C)C1=CN(CCC(C)C(=O)O)C(=O)NC1(C)c1ccc(OCC(C)(C)C)c(Cl)c1 (mixture of isomers) [Example 21] | 19 | 24 | – | – | –
CC(C)C1=CN(CCC(=O)O)C(=O)N[C@@]1(C)c1ccc(CC(O)C(C)(C)C)c(Cl)c1 (single isomer, unassigned) [Example 310] | – | – | 476 | 277 | –
CC(C)C1=CN(CCC(=O)O)C(=O)N[C@@]1(C)c1ccc(C=C2CCC2)c(Cl)c1 [Example 288] | – | – | 1490 | 917 | –
CC(C)C1=CN(CCC(=O)O)C(=O)N[C@@]1(C)c1ccc(C=C2CCC(C)(C)CC2)c(Cl)c1 [Example 285] | – | – | 1350 | 30 | –
CC(C)C1=CN(CCC(=O)O)C(=O)N[C@@]1(C)c1ccc(CCC2(C)CC2)c(Cl)c1 [Example 132] | 18 | 14 | – | – | –
CC(C)C1=CN(CCC(=O)O)C(=O)N[C@@]1(C)c1ccc(CCC(C)(C)C)c(Cl)c1 [Example 87, 3-{(S)-4-[3-Chloro-4-(3,3-dimethyl-butyl)-phenyl]-5-isopropyl-4-methyl-2-oxo-3,4-dihydro-2H-pyrimidin-1-yl}-propionic Acid] | 11 | 15 | – | – | –
CC(C)C1=CN(CCCC(=O)O)C(=O)NC1(C)c1ccc(OCCC(F)(F)F)cc1 (racemic) [Example 105] | 2790 | 1690 | – | – | –
CC(C)C1=CN([C@H]2CC[C@H](C(=O)O)CC2)C(=O)N[C@@]1(C)c1ccc(CCC(C)(C)C)c(Cl)c1 [Example 79] | 16 | 18 | – | – | –

SMILES | EC50 (human RORγ; [1]) [nM] | EC50 (mouse RORγ; [3]) [nM] | EC50 (human RORγ; [4]) [nM] | EC50 (mouse RORγ; [5]) [nM] | further results
CC(C)C1=CN(C2CCCC(C(=O)O)C2)C(=O)N[C@@]1(C)c1ccc(CCC(C)(C)C)c(Cl)c1 (single isomer, unassigned) [Example 257] | – | – | 165 | 115 | –
CC(C)C1=CN(c2ccc(C(=O)O)c(C(F)(F)F)c2)C(=O)N[C@@]1(C)c1ccc(CCC(C)(C)C)c(Cl)c1 [Example 283] | – | – | 18 | 28 | –
COCCC1=CN(c2ccc(C(=O)O)cc2)C(=O)N[C@@]1(C)c1ccc(CC2CCCCC2)c(Cl)c1 [Example 336] | – | – | 10 | 7 | –
CC(C)C1=CN(CCC(C)C(=O)O)C(=O)NC1(C)c1ccc(OCC(C)(C)C)c(Cl)c1 (single isomer, unassigned) [Example 19] | 2290 | 1210 | – | – | –
CC(C)C1=CN(CCC(=O)O)C(=O)N[C@@]1(C)c1ccc([S+]([O-])C2CCCC2)c(Cl)c1 (mixture of isomers) [Example 223] | – | – | > 20000 | > 20000 | hRORγ luciferase activity, %-of-control (human RORγ; [6]): (78%); mRORγ luciferase activity, %-of-control (mouse RORγ; [6]): (70%)
CC(C)C1=CN(CC(=O)O)C(=O)N[C@]1(C)c1ccc(CCC(C)(C)C)c(Cl)c1 [Example 93] | 2140 | 2540 | – | – | –
CC(C)C1=CN(CCC(=O)O)C(=O)N[C@@]1(C)c1ccc(CC2CCOCC2)c(Cl)c1 [Example 290] | – | – | 463 | 259 | –
CC(C)C1=CN(CCCC(=O)O)C(=O)NC1(C)c1ccc(CCC(C)(C)C)cc1 (racemic) [Example 26] | 364 | 217 | – | – | –
CC(C)C1=CN(CC(C)C(=O)O)C(=O)N[C@@]1(C)c1ccc(CCC(C)(C)C)c(Cl)c1 (single isomer, unassigned) [Example 300] | – | – | 10 | 14 | –
COC(=O)[C@H]1C[C@H](N2C=C(C(C)(C)CCC(=O)O)C(C)(c3ccc(CCC(C)(C)C)c(Cl)c3)NC2=O)C1 (single isomer, unassigned) [Example 181] | 18 | 32 | – | – | –
COCCC1=CN(c2ccc(C(=O)O)cn2)C(=O)N[C@@]1(C)c1ccc(C2=CCC(C)(C)CC2)c(Cl)c1 [Example 334] | – | – | 22 | 14 | –
CC(C)C1=CN(C2CCC(C(=O)O)C2)C(=O)N[C@]1(C)c1ccc(CCC(C)(C)C)c(Cl)c1 (single isomer, unassigned) [Example 63] | > 8000 | > 8000 | – | – | hRORγ luciferase activity, %-of-control (human RORγ; [2]): (51%); mRORγ luciferase activity, %-of-control (mouse RORγ; [2]): (70%)
CC(C)C1=CN(CCC(=O)O)C(=O)N[C@@]1(C)c1ccc2c(c1)CC(C)(C)C2 [Example 113] | 3030 | 1400 | – | – | –
CC(C)(C)CCc1ccc(C2(C)NC(=O)N(CCCC(=O)O)C=C2C2CN(S(C)(=O)=O)C2)cc1Cl (racemic) [Example 81] | 2580 | 2490 | – | – | –
CC(C)(C)CCc1ccc(C2(C)NC(=O)N([C@H]3C[C@H](C(=O)O)C3)C=C2C(C)(C)CCCO)cc1Cl (single isomer, unassigned) [Example 180] | 32 | 50 | – | – | –
CC(C)C1=CN(c2cc(C(=O)O)on2)C(=O)N[C@@]1(C)c1ccc(CCC(C)(C)C)c(Cl)c1 [Example 295] | – | – | 134 | 366 | –
CC(C)C1=CN([C@H]2C[C@@H](C(=O)O)C2)C(=O)NC1(C)c1ccc(OCC(C)(C)C)c(Cl)c1 (mixture of isomers) [Example 16] | 362 | 137 | – | – | –
CC(C)(C)CCc1ccc([C@]2(C)NC(=O)N(c3ccc(C(=O)O)cc3)C=C2C2CC(F)(F)C2)cc1C(F)(F)F [Example 342] | – | – | 43 | 28 | –
CC(C)C1=CN(CCC(=O)O)C(=O)N[C@@]1(C)c1ccc(CCC(C)(C)C(=O)O)c(Cl)c1 [Example 261] | – | – | > 20000 | > 20000 | hRORγ luciferase activity, %-of-control (human RORγ; [6]): (90%); mRORγ luciferase activity, %-of-control (mouse RORγ; [6]): (100%)
CC(C)C1=CN(CCC(=O)O)C(=O)NC1(C)c1ccc(C2CCCC(C)(C)C2)c(Cl)c1 (single isomer, unassigned) [Example 166] | 14 | 29 | – | – | –
CC(C)(C)CCc1ccc([C@@]2(C)NC(=O)N(CCCC(=O)O)C=C2C2CCCCC2)cc1Cl [Example 31] | 3070 | > 3200 | – | – | mRORγ luciferase activity, %-of-control (mouse RORγ; [2]): (52%)
